Consider one sequence from article PMC9137037 (Frontiers in Oncology, 2022).

The subject of the experiment is cynomolgus monkeys. Put plainly: ELISA antibody titers, monkey study No.00213519. In kind it is in vivo, Macaca fascicularis. To be noted: monkey 2nd set, 25, 100, 250 µg on days 1, 15, 29, 43, serum days 29, 43, 57, APi2568 as capture. As for the experimental part:
The non-human primate studies were carried out by the Charles River Laboratories (Ashland, OH USA). All the cynomolgus monkeys (Macaca fascicularis of Chinese origin) were obtained from Charles River Laboratories (Houston, TX, USA). In brief, the animals were approximately 2–4 years old and at the body weight between 2.2 and 3.1 kg at the initial dosing. The animals were kept at the temperature between 19°C and 24°C, humidity 30%–70%, and with 12 h light and 12 h dark light cycle. The Good manufacturing practice (GMP)-manufactured vaccine was used in the non-human primate study. […] Similar to mouse and dog dosing preparation, after the emulsion was prepared, a drop test was performed on each time of dosing to confirm that the emulsion had been prepared properly. […] All the animals’ body weights were monitored weekly after receiving. […]
Enzyme-linked immunosorbent assay (ELISA) was performed per our lab standard procedure. […] After washing, the antibody was detected using 50 μl of 0.15% H2O2 in 24 mM of citric acid and 5 mM of the sodium phosphate buffer (pH5.2) with 0.5 mg/ml 2, […] (3-ethylbenzthiazole- 6-sulfonic acid, ABTS; Sigma, St. Louis, MO, USA) as the chromophore. […] Absorbance was read at 415 nm using an ELISA microplate reader (SPECTRAmax PLUS384; Molecular Devices, San Jose, CA, USA). The highest dilution at the cutoff absorbance 0.2 were determined as the antibody titer. […]
A general note: An ELISA detects its analyte on a solid surface through an enzyme-linked reagent.

Where no end group is shown, it is not given here.

On to “KLLSLIKGVIVHRLEGVEGPSLGAISLAPKAQIKESLRAEL [MVF-PD-1(92-110)]”, for which the “anti-APi2568 antibody titers / immunogenicity (summary)” value (listed as APi2568) is “high and were relatively uniform across sample collection days and between the APi2568 dose groups”; the “anti-APi2568 antibody titers / immunogenicity (summary)” value (listed as PD-1(92)) is listed as “high immunogenicity”.
